{"source": "paper PMC3815523", "about": "(ACS chemical biology, 2013)", "key": {"Raw264.7 cells": {"test_system": "Raw264.7 cells", "test": "IFN-β secretion in Raw264.7 cells", "type": "cell-based", "conditions": "Raw264.7 mouse macrophage cell line"}, "TBK1 in Raw264.7 cells": {"test_system": "TBK1 in Raw264.7 cells", "test": "TBK1 phospho-Ser 172 immunoblot in Raw264.7 cells", "type": "cell-based, mouse"}, "IRF3": {"test_system": "IRF3", "test": "IRF3-driven luciferase reporter cell line", "type": "cell-based, mouse"}, "[1]": {"target": "hSTING CTD (amino acid residues 139-379) (Homo sapiens, UniProt Q86WV6)", "sequence (Q86WV6 140-379)": "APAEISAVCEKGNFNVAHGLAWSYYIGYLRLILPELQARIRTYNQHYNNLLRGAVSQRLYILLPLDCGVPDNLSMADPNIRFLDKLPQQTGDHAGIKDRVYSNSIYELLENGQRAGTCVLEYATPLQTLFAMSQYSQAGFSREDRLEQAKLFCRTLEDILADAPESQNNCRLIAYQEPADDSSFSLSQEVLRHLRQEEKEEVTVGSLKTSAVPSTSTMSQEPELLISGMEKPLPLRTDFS", "test": "Isothermal titration calorimetry, hSTING-CTD", "type": "binding"}, "[2]": {"test_system": "full-length mSTING in 293T cells", "test": "Response of 293T cells overexpressing full-length mSTING", "type": "cell-based, mouse", "conditions": "293T cells overexpressing mSTING; c-di-GMP 2 μg/ml transfected, DMXAA 500 μM"}, "[3]": {"target": "T1, mSTING CTD (amino acids 139-378) (Mus musculus, UniProt Q3TBT3)", "T1 sequence (Q3TBT3 139-378)": "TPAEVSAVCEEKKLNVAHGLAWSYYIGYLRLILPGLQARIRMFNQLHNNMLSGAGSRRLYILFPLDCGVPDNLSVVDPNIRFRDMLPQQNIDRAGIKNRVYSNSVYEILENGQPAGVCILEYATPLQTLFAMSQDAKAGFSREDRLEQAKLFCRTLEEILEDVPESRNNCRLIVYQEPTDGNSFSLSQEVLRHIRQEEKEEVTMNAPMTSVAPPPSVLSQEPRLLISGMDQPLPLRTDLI", "test": "Isothermal titration calorimetry, mSTING-CTD", "type": "binding", "conditions": "ITC"}, "mSTING CTD": {"target": "T2, mSTING CTD (Mus musculus, UniProt Q3TBT3)", "T2 sequence (Q3TBT3 139-378)": "T1 sequence (Q3TBT3 139-378)", "test": "Fluorescence polarization competition assay with fluorescein-labeled c-di-GMP", "type": "binding", "conditions": "FP"}, "human leukocytes": {"test_system": "human leukocytes", "conditions": "cited from earlier work"}}}
{"smiles": "Cc1ccc2c(=O)c3cccc(CC(=O)O)c3oc2c1C", "note": "[DMXAA, 5,6– dimethylxanthenone-4-acetic acid]", "values": [{"measurement": "IFN-β secretion", "setting": "Raw264.7 cells", "result": "induces IFN-β secretion"}, {"measurement": "TBK1 phosphorylation (phospho-Ser 172)", "setting": "TBK1 in Raw264.7 cells", "result": "became phosphorylated in response to DMXAA in a dose- and time-dependent manner"}, {"measurement": "IRF3 activation and nuclear translocation", "setting": "IRF3", "result": "induces IRF3 activation and nuclear translocation"}, {"measurement": "interaction with hSTING CTD", "setting": "[1]; ITC", "result": "no interaction"}, {"measurement": "affinity for the CTD of hSTING lower than for mSTING", "setting": "[1]; from upper bound of detection by ITC ∼100 μM", "result": "at least 1000 fold"}, {"measurement": "responsiveness of cells", "setting": "[2]", "result": "responsive"}]}
{"smiles": "Nc1nc2c(ncn2[C@@H]2O[C@@H]3COP(=O)(O)O[C@H]4[C@@H](O)[C@H](n5cnc6c(=O)[nH]c(N)nc65)O[C@@H]4COP(=O)(O)O[C@H]3[C@H]2O)c(=O)[nH]1", "note": "[c-di-GMP, cyclic-di-GMP]", "values": [{"measurement": "higher binding affinity of the mouse homolog vs hSTING", "setting": "[3]; mSTING CTD vs hSTING CTD", "result": "~50", "unit": "fold"}, {"measurement": "Kd", "setting": "[3]; read-out: dissociation constant (Kd), 25°C, mSTING CTD", "result": "~110", "unit": "nM"}, {"measurement": "competition with fluorescent c-di-GMP probe (apparent IC50)", "setting": "mSTING CTD", "result": "competed out this signal"}, {"measurement": "Kd", "setting": "[1]; ITC, 25°C, hSTING CTD", "result": "~5200", "unit": "nM"}, {"measurement": "stoichiometry", "setting": "[1]; ITC, hSTING CTD", "result": 0.59}, {"measurement": "responsiveness of cells", "setting": "[2]", "result": "responsive"}]}
{"smiles": "Cc1cccc2oc3c(CC(=O)O)cccc3c(=O)c12", "note": "[XAA-8Me]", "values": [{"measurement": "IL-6, IL-8 and TNFα secretion", "setting": "human leukocytes", "result": "increased"}]}
